Test results: PubChem BioAssay (NCI)
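These data come from cells grown in 96-well plates and exposed to compound for 48 hours at five concentrations. GI50: concentration for 50% inhibition of growth. TGI is the concentration that stops growth completely.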

Tests used:
Test in all cases: NCI tumour cell line growth inhibition, 48 h
UACC-257 melanoma = tested on: UACC-257 melanoma
HOP-92 NSCLC = tested on: HOP-92 NSCLC
RXF 393 renal = tested on: RXF 393 renal
A498 renal = tested on: A498 renal
CAKI-1 renal = tested on: CAKI-1 renal
KM12 colon = tested on: KM12 colon
SK-MEL-5 melanoma = tested on: SK-MEL-5 melanoma
SNB-19 CNS = tested on: SNB-19 CNS
OVCAR-5 ovarian = tested on: OVCAR-5 ovarian
SW-620 colon = tested on: SW-620 colon
HT29 colon = tested on: HT29 colon
NCI-H226 lung = tested on: NCI-H226 lung
HCT-116 colon = tested on: HCT-116 colon
PC-3 prostate = tested on: PC-3 prostate
RPMI-8226 leukemia = tested on: RPMI-8226 leukemia
786-0 renal = tested on: 786-0 renal
HS 578T breast = tested on: HS 578T breast
T-47D breast = tested on: T-47D breast
A549 NSCLC = tested on: A549 NSCLC
HL-60(TB) leukemia = tested on: HL-60(TB) leukemia
NCI/ADR-RES ovarian = tested on: NCI/ADR-RES ovarian
MDA-MB-435 = tested on: MDA-MB-435
SF-268 CNS = tested on: SF-268 CNS
UO-31 renal = tested on: UO-31 renal
TK-10 renal = tested on: TK-10 renal
OVCAR-4 ovarian = tested on: OVCAR-4 ovarian
SK-MEL-2 melanoma = tested on: SK-MEL-2 melanoma
HCC-2998 colon = tested on: HCC-2998 colon
SNB-75 CNS = tested on: SNB-75 CNS
BT-549 breast = tested on: BT-549 breast
HOP-62 NSCLC = tested on: HOP-62 NSCLC
IGROV1 ovarian = tested on: IGROV1 ovarian
COLO 205 colon = tested on: COLO 205 colon
DU-145 prostate = tested on: DU-145 prostate
MDA-MB-231 breast = tested on: MDA-MB-231 breast
NCI-H460 lung = tested on: NCI-H460 lung
CCRF-CEM leukemia = tested on: CCRF-CEM leukemia
HCT-15 colon = tested on: HCT-15 colon
M14 melanoma = tested on: M14 melanoma
ACHN renal = tested on: ACHN renal
SF-295 CNS = tested on: SF-295 CNS
SN12C renal = tested on: SN12C renal
U251 CNS = tested on: U251 CNS
UACC-62 melanoma = tested on: UACC-62 melanoma
EKVX NSCLC = tested on: EKVX NSCLC
NCI-H23 lung = tested on: NCI-H23 lung
SK-MEL-28 melanoma = tested on: SK-MEL-28 melanoma
OVCAR-8 ovarian = tested on: OVCAR-8 ovarian
OVCAR-3 ovarian = tested on: OVCAR-3 ovarian
MCF7 breast = tested on: MCF7 breast
SK-OV-3 ovarian = tested on: SK-OV-3 ovarian
K-562 leukemia = tested on: K-562 leukemia
NCI-H522 lung = tested on: NCI-H522 lung
MOLT-4 leukemia = tested on: MOLT-4 leukemia
SF-539 CNS = tested on: SF-539 CNS
LOX IMVI melanoma = tested on: LOX IMVI melanoma
MALME-3M melanoma = tested on: MALME-3M melanoma

With NCCCCN(CCCN)C(=O)c1ccccc1 the TGI (UACC-257 melanoma) was > 100 µM, the TGI (HOP-92 NSCLC) was > 100 µM and the TGI (RXF 393 renal) was > 100 µM. For the same molecule, the TGI (A498 renal) was > 100 µM, the TGI (CAKI-1 renal) was > 100 µM and the TGI (KM12 colon) was > 100 µM. The TGI (SK-MEL-5 melanoma) was > 100 µM, the TGI (SNB-19 CNS) was > 100 µM and the TGI (OVCAR-5 ovarian) was > 100 µM. The TGI (SW-620 colon) was > 100 µM, the TGI (HT29 colon) was > 100 µM and the TGI (NCI-H226 lung) was > 100 µM. The TGI (HCT-116 colon) was > 100 µM, the TGI (PC-3 prostate) was > 100 µM and the TGI (RPMI-8226 leukemia) was > 100 µM. For the same molecule, the TGI (786-0 renal) was > 100 µM, the TGI (HS 578T breast) was > 100 µM and the TGI (T-47D breast) was > 100 µM. For the same molecule, the TGI (A549 NSCLC) was > 100 µM, the TGI (HL-60(TB) leukemia) was > 100 µM and the TGI (NCI/ADR-RES ovarian) was > 100 µM. For the same molecule, the TGI (MDA-MB-435) was > 100 µM, the TGI (SF-268 CNS) was > 100 µM and the TGI (UO-31 renal) was > 100 µM. For the same molecule, the TGI (TK-10 renal) was > 100 µM, the TGI (OVCAR-4 ovarian) was > 100 µM and the TGI (SK-MEL-2 melanoma) was > 100 µM. The TGI (HCC-2998 colon) was > 100 µM, the TGI (SNB-75 CNS) was > 100 µM and the TGI (BT-549 breast) was > 100 µM. The TGI (HOP-62 NSCLC) was > 100 µM, the TGI (IGROV1 ovarian) was > 100 µM and the TGI (COLO 205 colon) was > 100 µM. The TGI (DU-145 prostate) was > 100 µM, the TGI (MDA-MB-231 breast) was > 100 µM and the TGI (NCI-H460 lung) was > 100 µM. For the same molecule, the TGI (CCRF-CEM leukemia) was > 100 µM, the TGI (HCT-15 colon) was > 100 µM and the TGI (M14 melanoma) was > 100 µM. For the same molecule, the TGI (ACHN renal) was > 100 µM, the TGI (SF-295 CNS) was > 100 µM and the TGI (SN12C renal) was > 100 µM. For the same molecule, the TGI (U251 CNS) was > 100 µM, the TGI (UACC-62 melanoma) was > 100 µM and the TGI (EKVX NSCLC) was > 100 µM. The TGI (NCI-H23 lung) was > 100 µM, the TGI (SK-MEL-28 melanoma) was > 100 µM and the TGI (OVCAR-8 ovarian) was > 100 µM. The TGI (OVCAR-3 ovarian) was > 100 µM, the TGI (MCF7 breast) was > 100 µM and the TGI (SK-OV-3 ovarian) was > 100 µM. For the same molecule, the TGI (K-562 leukemia) was > 100 µM, the TGI (NCI-H522 lung) was > 100 µM and the TGI (MOLT-4 leukemia) was > 100 µM. For the same molecule, the TGI (SF-539 CNS) was > 100 µM.

O=c1cc(N2CCNCC2)oc2c(-c3ccccc3)cccc12 gave a GI50 (UACC-257 melanoma) of 13.6 µM, a TGI (UACC-257 melanoma) of 29.1 µM and a GI50 (HOP-92 NSCLC) of 17.3 µM. The TGI (HOP-92 NSCLC) was > 100 µM, the GI50 (A498 renal) was 25 µM and the TGI (A498 renal) was 74.8 µM. The GI50 (CAKI-1 renal) was 26.8 µM, the TGI (CAKI-1 renal) was > 100 µM and the GI50 (KM12 colon) was 43.9 µM. For the same molecule, the TGI (KM12 colon) was > 100 µM, the GI50 (SK-MEL-5 melanoma) was 14.8 µM and the TGI (SK-MEL-5 melanoma) was 32.5 µM. The GI50 (SNB-19 CNS) was 34.5 µM, the TGI (SNB-19 CNS) was > 100 µM and the GI50 (OVCAR-5 ovarian) was > 100 µM. For the same molecule, the TGI (OVCAR-5 ovarian) was > 100 µM, the GI50 (LOX IMVI melanoma) was 31.7 µM and the TGI (LOX IMVI melanoma) was > 100 µM. For the same molecule, the GI50 (SW-620 colon) was 82.9 µM, the TGI (SW-620 colon) was > 100 µM and the GI50 (HT29 colon) was 24.8 µM. For the same molecule, the TGI (HT29 colon) was > 100 µM, the GI50 (NCI-H226 lung) was > 100 µM and the TGI (NCI-H226 lung) was > 100 µM. The GI50 (PC-3 prostate) was 32 µM, the TGI (PC-3 prostate) was > 100 µM and the GI50 (RPMI-8226 leukemia) was 15.3 µM. For the same molecule, the TGI (RPMI-8226 leukemia) was 38.5 µM, the GI50 (786-0 renal) was 33.7 µM and the TGI (786-0 renal) was > 100 µM. For the same molecule, the GI50 (HS 578T breast) was 9.75 µM, the TGI (HS 578T breast) was > 100 µM and the GI50 (T-47D breast) was 26.6 µM. The TGI (T-47D breast) was > 100 µM, the GI50 (A549 NSCLC) was 23.3 µM and the TGI (A549 NSCLC) was 76.2 µM. For the same molecule, the GI50 (HL-60(TB) leukemia) was 29.4 µM, the TGI (HL-60(TB) leukemia) was > 100 µM and the GI50 (NCI/ADR-RES ovarian) was > 100 µM. For the same molecule, the TGI (NCI/ADR-RES ovarian) was > 100 µM, the GI50 (MDA-MB-435) was 20.9 µM and the TGI (MDA-MB-435) was 98.8 µM. The GI50 (SF-268 CNS) was 46.3 µM, the TGI (SF-268 CNS) was > 100 µM and the GI50 (UO-31 renal) was 24 µM. The TGI (UO-31 renal) was > 100 µM, the GI50 (TK-10 renal) was 27.9 µM and the TGI (TK-10 renal) was > 100 µM. The GI50 (OVCAR-4 ovarian) was 52.7 µM, the TGI (OVCAR-4 ovarian) was > 100 µM and the GI50 (SK-MEL-2 melanoma) was 51.5 µM. The TGI (SK-MEL-2 melanoma) was > 100 µM, the GI50 (HCC-2998 colon) was 18.1 µM and the TGI (HCC-2998 colon) was 39.8 µM. For the same molecule, the GI50 (SNB-75 CNS) was 15.3 µM, the TGI (SNB-75 CNS) was 75 µM and the GI50 (BT-549 breast) was > 100 µM. The TGI (BT-549 breast) was > 100 µM, the GI50 (HOP-62 NSCLC) was 65.4 µM and the TGI (HOP-62 NSCLC) was > 100 µM. The GI50 (IGROV1 ovarian) was 31.8 µM, the TGI (IGROV1 ovarian) was > 100 µM and the GI50 (COLO 205 colon) was 11.3 µM. For the same molecule, the TGI (COLO 205 colon) was 27.8 µM, the GI50 (DU-145 prostate) was 59 µM and the TGI (DU-145 prostate) was > 100 µM. For the same molecule, the GI50 (MDA-MB-231 breast) was 24.1 µM, the TGI (MDA-MB-231 breast) was > 100 µM and the GI50 (MALME-3M melanoma) was 23.6 µM. For the same molecule, the TGI (MALME-3M melanoma) was 56.8 µM, the GI50 (NCI-H460 lung) was 48.7 µM and the TGI (NCI-H460 lung) was > 100 µM. For the same molecule, the GI50 (CCRF-CEM leukemia) was 25.5 µM, the TGI (CCRF-CEM leukemia) was 69.5 µM and the GI50 (HCT-15 colon) was 34.7 µM. The TGI (HCT-15 colon) was > 100 µM, the GI50 (M14 melanoma) was 15.6 µM and the TGI (M14 melanoma) was 29.1 µM. For the same molecule, the GI50 (ACHN renal) was 34.1 µM, the TGI (ACHN renal) was > 100 µM and the GI50 (SF-295 CNS) was 39.8 µM. For the same molecule, the TGI (SF-295 CNS) was > 100 µM, the GI50 (SN12C renal) was 45.1 µM and the TGI (SN12C renal) was > 100 µM. For the same molecule, the GI50 (U251 CNS) was 35.4 µM, the TGI (U251 CNS) was > 100 µM and the GI50 (UACC-62 melanoma) was 25.2 µM. For the same molecule, the TGI (UACC-62 melanoma) was > 100 µM, the GI50 (EKVX NSCLC) was 19.8 µM and the TGI (EKVX NSCLC) was > 100 µM. The GI50 (NCI-H23 lung) was > 100 µM, the TGI (NCI-H23 lung) was > 100 µM and the GI50 (SK-MEL-28 melanoma) was 39.6 µM. The TGI (SK-MEL-28 melanoma) was > 100 µM, the GI50 (OVCAR-8 ovarian) was 74.2 µM and the TGI (OVCAR-8 ovarian) was > 100 µM. The GI50 (OVCAR-3 ovarian) was 24.6 µM, the TGI (OVCAR-3 ovarian) was > 100 µM and the GI50 (MCF7 breast) was 40.7 µM. The TGI (MCF7 breast) was > 100 µM, the GI50 (SK-OV-3 ovarian) was 13.8 µM and the TGI (SK-OV-3 ovarian) was 42.2 µM. The GI50 (K-562 leukemia) was 13.1 µM, the TGI (K-562 leukemia) was 47 µM and the GI50 (NCI-H522 lung) was 37 µM. For the same molecule, the TGI (NCI-H522 lung) was > 100 µM, the GI50 (MOLT-4 leukemia) was 19.4 µM and the TGI (MOLT-4 leukemia) was 56.8 µM. The GI50 (SF-539 CNS) was 68 µM and the TGI (SF-539 CNS) was > 100 µM.
